Measured values published in patent publication US10086039B2, “Lamin A, an activator of longevity/anti-aging SIRT1 protein” (THE UNIVERSITY OF HONG KONG, priority 2012, dated 2018).

Tests used:
Zmpste24−/− BMSCs = test: BMSC colony-forming assay in vitro; assay type: cell-based, mouse
From the text: Bone marrow stromal cells were isolated and cultured according to modified protocol (Enumeration and Expansion of Mouse Mesenchymal Progenitor Cells Using MESENCUILT®, Stemcell Technologies, Canada). Briefly, bone marrow cells were flushed out from femurs and tibias with α-MEM (Invitrogen, Carlsbad, Calif., USA) supplemented with 20% FBS, and plated in petri dishes. Non-adherent cells were removed on day 3 and medium was replaced every 3 days. BMSC colonies were fixed with methanol and stained with crystal violet solution on the indicated day. For magnetic enrichment, CD11b-positive population was removed using a MIDIMACS™ magnetic cell sorting kit (Miltenyi Biotec, Bergisch Gladbach, Germany), following the manufacturer's instructions. Colonies containing more than 50 cells were counted. BMSC colony forming efficiency was calculated as number of colonies formed by […] bone marrow nucleated cells.

H3K9ac = H3K9ac level in wild-type, SIRT1 null and Lmna null cells (immunoblot, immunofluorescence); assay type: cell-based
Protocol: (§1) Western blotting was performed as described previously (Liu et al., 2005). Relative band intensity was measured by IMAGE J® and normalized to corresponding wild-type or untreated controls as indicated.
In addition to acetyl p53, H3K9ac is another substrate of SIRT1 deacetylase (Wang et al., 2008). This Example further investigates the effects of resveratrol on H3K9ac in the wild-type, SIRT1^−/− or Lmna null cells. […] Anti-H3K9ac immunofluorescence staining further confirmed the lamin A-dependent activation of SIRT1 by resveratrol (FIG. 3G).

p16ink4a = p16ink4a level in MEFs by Western blotting; assay type: cell-based, mouse; details: Zmpste24−/− MEFs
Protocol: as §1
As resveratrol enhances SIRT1 deacetylase activity by increasing its binding to lamin A, this Example examines the effects of resveratrol treatment on the early senescence in Zmpste24^−/− MEFs. […] As SIRT1 is more highly expressed in stem cells than in somatic differentiated cells and it is critical for maintaining stem cell self-renewal and function (Han et al., 2008; Lee et al., 2011; Saunders et al., 2010), we then tested effects of resveratrol on BMSCs.

Zmpste24−/− mice = test: HSC population in bone marrow of treated Zmpste24−/− mice (FACS); assay type: in vivo, mouse; details: resveratrol 20 μg/ml in drinking water
Protocol: Zmpste24^-/- mice have been described previously ([…] et al., 2002). Mouse experimentation was performed in accordance with the guidelines of the Committee on the Use of Live Animals in Teaching and Research (CULATR) at the University of Hong Kong. New-born Zmpste24^-/- mice and wild-type controls were fed with resveratrol (20 μg/ml) or N-acetyl Cysteine (1 mg/ml) in drinking water. The survival of resveratrol-treated, NAC-treated, or vehicle-treated Zmpste24^-/- mice was recorded and their body weight was monitored weekly. The trabecular bone organization and bone mineral density were determined by micro-CT. The survival rate was analyzed by Kaplan-Meier method and statistical comparison was performed by Log-rank (Mantel-Cox) Test. To analyze hematopoietic stem cells, mononucleated cells were collected by flushing femurs and tibias with staining medium (HBSS supplemented with 2% FBS) and stained with biotin-coupled lineage markers, Biotin-Flt3, PE-Sca-1, APC-c-Kit, and then SAv-PerCP. FACS profile analyses were performed using a BD FACSCalibur.

AMPK [1] = details: cited from earlier work
AMPK [2] = test: AMPK activation at low doses of resveratrol; assay type: cell-based; details: low doses (2-10 μM)
Protocol: It was shown that low doses of resveratrol (≤25 μM) activates AMPK in a SIRT1-dependent manner, while high doses (≥50 μM) activate AMPK independent of SIRT1 (Baur et al., 2006; Price et al., 2012; Sun et al., 2007). In the present invention, low doses (2-10 μM) of resveratrol were used and activation of AMPK was not observed; therefore, it is postulated that the beneficial effects of resveratrol on BMSCs are primarily attributable to the activation of SIRT1.

Zmpste24−/− MEFs = test: SA-β-galactosidase senescence assay in MEFs; assay type: cell-based, mouse; details: resveratrol-treated vs saline-treated
Protocol: SA-β-galactosidase assay was performed using a Cellular Senescence Assay Kit (Chemicon International, CA, USA), following the manufacturer's instructions. For MEFs, resveratrol was supplemented in the complete medium at passage 4 and SA-β-galactosidase assay was performed at passage 6. To quantify SA-β-galactosidase staining, the blue-dyed precipitate was extracted with 100 μl DMSO and the absorbance at 415 nm was recorded.

## Oc1ccc(C=Cc2cc(O)cc(O)c2)cc1 [resveratrol]
Zmpste24−/− BMSCs; Zmpste24−/− BMSCs with SIRT1 knocked down
  rescue effect on colony-forming capacity: attenuated
Zmpste24−/− BMSCs; Zmpste24−/− BMSCs, 2 μM and 10 μM, dose-dependent
  colony-forming capacity: enhanced the colony-forming capacity
H3K9ac; Lmna−/− cells
  effect on level of H3K9ac: completely abrogated
H3K9ac; SIRT1−/− cells
  effect on level of H3K9ac: completely abrogated
H3K9ac; wild-type cells
  level of H3K9ac: downregulated
p16ink4a
  elevated levels of p16ink4a: did not reduce
Zmpste24−/− mice
  early decline in HSCs: rescued
AMPK [1]; high doses
  doses activating AMPK independent of SIRT1: ≥ 50 µM
AMPK [1]; low doses
  doses activating AMPK in a SIRT1-dependent manner: ≤ 25 µM
AMPK [2]
  activation of AMPK: not observed
Zmpste24−/− MEFs
  β-galactosidase activity (senescence): no obvious difference
